Experimental data published in ChEMBL document CHEMBL1201862, “PubChem BioAssay data set” (2004).
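Assay format: 96-well plates, 48-hour exposure. GI50 is the concentration that inhibits growth by half.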 Calls of active or inactive are those of the source. Rule as the data show it: active = GI50 up to about 1.1 µM and inactive = higher.

What was measured:
Assay in all cases: growth of human tumour cells (NCI), 48 h
HCC 2998 = tested on: HCC 2998
NCI/ADR-RES = tested on: NCI/ADR-RES
CCRF-CEM = tested on: CCRF-CEM
KM12 = tested on: KM12
OVCAR-3 = tested on: OVCAR-3
RPMI-8226 = tested on: RPMI-8226
SW-620 = tested on: SW-620
SNB-19 = tested on: SNB-19
Hs-578T = tested on: Hs-578T
A549 = tested on: A549
HT-29 = tested on: HT-29
HOP-62 = tested on: HOP-62
SF-295 = tested on: SF-295
SK-MEL-28 = tested on: SK-MEL-28
SK-OV-3 = tested on: SK-OV-3
DU-145 = tested on: DU-145
TK-10 = tested on: TK-10
M14 = tested on: M14
NCI-H460 = tested on: NCI-H460
OVCAR-5 = tested on: OVCAR-5
OVCAR-8 = tested on: OVCAR-8
MDA-N = tested on: MDA-N
IGROV-1 = tested on: IGROV-1
A498 = tested on: A498
NCI-H226 = tested on: NCI-H226
CAKI-1 = tested on: CAKI-1
COLO 205 = tested on: COLO 205
UACC-257 = tested on: UACC-257
U-251 = tested on: U-251
SNB-75 = tested on: SNB-75
PC-3 = tested on: PC-3
ACHN = tested on: ACHN
SF-539 = tested on: SF-539
NCI-H522 = tested on: NCI-H522
BT-549 = tested on: BT-549
Malme-3M = tested on: Malme-3M
SK-MEL-2 = tested on: SK-MEL-2
LOX IMVI = tested on: LOX IMVI
HCT-15 = tested on: HCT-15
HOP-92 = tested on: HOP-92
MCF7 = tested on: MCF7
UO-31 = tested on: UO-31
786-0 = tested on: 786-0
HCT-116 = tested on: HCT-116
MDA-MB-231 = tested on: MDA-MB-231
OVCAR-4 = tested on: OVCAR-4
EKVX = tested on: EKVX
NCI-H23 = tested on: NCI-H23
UACC-62 = tested on: UACC-62
HL-60 = tested on: HL-60
MDA-MB-435 = tested on: MDA-MB-435
SN12C = tested on: SN12C
SF-268 = tested on: SF-268
SK-MEL-5 = tested on: SK-MEL-5
T47D = tested on: T47D
SR = tested on: SR
RXF 393 = tested on: RXF 393
MOLT-4 = tested on: MOLT-4
K562 = tested on: K562

## CSc1nc(SC)c2ncn(C3CC(Oc4ccc(C)cc4)C(COc4ccc(C)cc4)O3)c2n1 (stereo not drawn)
HCC 2998
  GI50: > 100 µM (inactive)
NCI/ADR-RES
  GI50: > 100 µM (inactive)
CCRF-CEM
  GI50: > 100 µM (inactive)
KM12
  GI50: > 100 µM (inactive)
OVCAR-3
  GI50: > 100 µM (inactive)
RPMI-8226
  GI50: 8.71 µM (inactive)
SW-620
  GI50: > 100 µM (inactive)
SNB-19
  GI50: > 100 µM (inactive)
Hs-578T
  GI50: > 100 µM (inactive)
A549
  GI50: > 100 µM (inactive)
HT-29
  GI50: > 100 µM (inactive)
HOP-62
  GI50: > 100 µM (inactive)
SF-295
  GI50: > 100 µM (inactive)
SK-MEL-28
  GI50: > 100 µM (inactive)
SK-OV-3
  GI50: > 100 µM (inactive)
DU-145
  GI50: > 100 µM (inactive)
TK-10
  GI50: > 100 µM (inactive)
M14
  GI50: > 100 µM (inactive)
NCI-H460
  GI50: > 100 µM (inactive)
OVCAR-5
  GI50: > 100 µM (inactive)
OVCAR-8
  GI50: > 100 µM (inactive)
MDA-N
  GI50: > 100 µM (inactive)
IGROV-1
  GI50: > 100 µM (inactive)
A498
  GI50: > 100 µM (inactive)
NCI-H226
  GI50: > 100 µM (inactive)
CAKI-1
  GI50: > 100 µM (inactive)
COLO 205
  GI50: > 100 µM (inactive)
UACC-257
  GI50: > 100 µM (inactive)
U-251
  GI50: > 100 µM (inactive)
SNB-75
  GI50: 26.5 µM (inactive)
PC-3
  GI50: > 100 µM (inactive)
ACHN
  GI50: > 100 µM (inactive)
SF-539
  GI50: > 100 µM (inactive)
NCI-H522
  GI50: > 100 µM (inactive)
BT-549
  GI50: > 100 µM (inactive)
Malme-3M
  GI50: > 100 µM (inactive)
SK-MEL-2
  GI50: > 100 µM (inactive)
LOX IMVI
  GI50: > 100 µM (inactive)
HCT-15
  GI50: > 100 µM
HOP-92
  GI50: > 100 µM (inactive)
MCF7
  GI50: > 100 µM (inactive)
UO-31
  GI50: 0.984 µM (active)
786-0
  GI50: > 100 µM (inactive)
HCT-116
  GI50: > 100 µM (inactive)
MDA-MB-231
  GI50: > 100 µM (inactive)
OVCAR-4
  GI50: > 100 µM (inactive)
EKVX
  GI50: > 100 µM (inactive)
NCI-H23
  GI50: > 100 µM (inactive)
UACC-62
  GI50: > 100 µM (inactive)
HL-60
  GI50: > 100 µM (inactive)
MDA-MB-435
  GI50: > 100 µM (inactive)
SN12C
  GI50: > 100 µM (inactive)
SF-268
  GI50: > 100 µM (inactive)
SK-MEL-5
  GI50: > 100 µM (inactive)
T47D
  GI50: 63.1 µM (inactive)

## Cc1c(C)c(S(=O)(=O)N(CCCCCN)OCCCN)c(C)c2c1OC(C)(C)CC2
HCC 2998
  GI50: 2.27 µM (inactive)
NCI/ADR-RES
  GI50: 20.6 µM (inactive)
CCRF-CEM
  GI50: 2.6 µM (inactive)
KM12
  GI50: 2.92 µM (inactive)
OVCAR-3
  GI50: 5.9 µM (inactive)
RPMI-8226
  GI50: 3.6 µM (inactive)
SW-620
  GI50: 7.8 µM (inactive)
SR
  GI50: 1.61 µM (inactive)
SNB-19
  GI50: 7.91 µM (inactive)
RXF 393
  GI50: 11.6 µM (inactive)
Hs-578T
  GI50: 6.73 µM (inactive)
A549
  GI50: 16 µM (inactive)
HT-29
  GI50: 13 µM (inactive)
MOLT-4
  GI50: 3.76 µM (inactive)
HOP-62
  GI50: 8.05 µM (inactive)
SF-295
  GI50: 17.4 µM (inactive)
SK-MEL-28
  GI50: 18.9 µM (inactive)
SK-OV-3
  GI50: 13.4 µM (inactive)
DU-145
  GI50: 25.1 µM (inactive)
TK-10
  GI50: 16.2 µM (inactive)
M14
  GI50: 27.7 µM (inactive)
NCI-H460
  GI50: 6.35 µM (inactive)
OVCAR-5
  GI50: 24.8 µM (inactive)
OVCAR-8
  GI50: 15.6 µM (inactive)
MDA-N
  GI50: 4.73 µM (inactive)
IGROV-1
  GI50: 2.82 µM (inactive)
A498
  GI50: 18.6 µM (inactive)
NCI-H226
  GI50: 8.89 µM (inactive)
CAKI-1
  GI50: 20.5 µM (inactive)
K562
  GI50: 5.07 µM (inactive)
COLO 205
  GI50: 12.2 µM (inactive)
UACC-257
  GI50: 13.8 µM (inactive)
U-251
  GI50: 5.64 µM (inactive)
SNB-75
  GI50: 6.4 µM (inactive)
PC-3
  GI50: 4.06 µM (inactive)
ACHN
  GI50: 17.2 µM (inactive)
SF-539
  GI50: > 25.3 µM (inactive)
NCI-H522
  GI50: 6.28 µM (inactive)
BT-549
  GI50: 13.5 µM (inactive)
Malme-3M
  GI50: 14.3 µM (inactive)
SK-MEL-2
  GI50: 4.75 µM (inactive)
LOX IMVI
  GI50: 5.4 µM (inactive)
HCT-15
  GI50: 18.6 µM
HOP-92
  GI50: 18.3 µM (inactive)
UO-31
  GI50: 20.1 µM (inactive)
786-0
  GI50: 6.62 µM (inactive)
HCT-116
  GI50: 5.98 µM (inactive)
MDA-MB-231
  GI50: 5.89 µM (inactive)
OVCAR-4
  GI50: 3.96 µM (inactive)
EKVX
  GI50: 11.4 µM (inactive)
NCI-H23
  GI50: 14.6 µM (inactive)
UACC-62
  GI50: 12.9 µM (inactive)
HL-60
  GI50: 2.19 µM (inactive)
MDA-MB-435
  GI50: 5.82 µM (inactive)
SN12C
  GI50: 16.6 µM (inactive)
SF-268
  GI50: 10 µM (inactive)
SK-MEL-5
  GI50: 14.2 µM (inactive)
T47D
  GI50: 16.6 µM (inactive)
